Active and inactive are the calls of the source.
What was measured:
[1] = target: T1, Cytochrome P450 2D6 (Homo sapiens, UniProt P10635);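 also: CYP2D6 member of a cytochrome P450 panel assay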
[2] = system: Streptococcus; experiment: Group A Streptococcus viability loss, dose response, counter-screen for streptokinase expression inhibitor project, luminescence, BacTiterGlo (AID 1915); format: functional, organism-based;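 also: potency for reduction of bacterial viability or growth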
[3] = Luminescence Cell-Based Dose Retest to Confirm Inhibitors of Cancer Stem Cells. [Related pubchem assays (depositor defined):AID2717, AID2721]; format: functional; conditions: Homo sapiens
[4] = target: T2, Streptokinase A (Streptococcus pyogenes serotype M1, UniProt P10520); experiment: S. pyogenes streptokinase expression inhibitors, potency, dose response, plasminogen activation absorbance, OD405 (AID 1914); format: functional, Streptococcus pyogenes M1 GAS;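 also: secreted streptokinase activity via plasminogen activation per viability signal from cell pellet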
T2 sequence (P10520 whole entry): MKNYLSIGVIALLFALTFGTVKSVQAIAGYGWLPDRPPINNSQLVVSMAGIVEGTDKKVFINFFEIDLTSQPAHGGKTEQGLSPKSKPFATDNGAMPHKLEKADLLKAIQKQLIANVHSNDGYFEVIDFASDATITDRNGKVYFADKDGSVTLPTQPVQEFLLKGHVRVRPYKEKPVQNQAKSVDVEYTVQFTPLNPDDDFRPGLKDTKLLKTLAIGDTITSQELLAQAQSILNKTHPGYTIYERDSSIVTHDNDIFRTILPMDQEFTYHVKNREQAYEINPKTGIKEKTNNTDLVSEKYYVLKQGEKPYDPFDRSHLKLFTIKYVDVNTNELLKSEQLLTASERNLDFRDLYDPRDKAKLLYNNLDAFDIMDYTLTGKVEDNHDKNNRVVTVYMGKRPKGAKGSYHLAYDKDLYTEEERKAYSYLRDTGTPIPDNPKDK

[5] = system: Streptococcus sp. 'group A'; experiment: growth inhibition of control SK(-) GAS strain, dose response, counter-screen for streptokinase expression inhibitor project, luminescence, kanamycin, BacTiterGlo, confirmation (AID 1900); format: functional, organism-based
[6] = A Cell Based Secondary Assay To Explore Cytotoxicity of Compounds that Sensitize Mycobacterium Tuberculosis to Beta-Lactam Antibiotics.; format: functional
[7] = target: Cytochrome P450 2C19 (Homo sapiens, UniProt P33261); experiment: Cytochrome panel assay with activity outcomes. Panel member name: p450-cyp2c19 Compounds with AC50 equal or less than 10 uM are considered active; format: functional; conditions: read-out: AC50
Sequence of Cytochrome P450 2C19 (P33261 whole entry): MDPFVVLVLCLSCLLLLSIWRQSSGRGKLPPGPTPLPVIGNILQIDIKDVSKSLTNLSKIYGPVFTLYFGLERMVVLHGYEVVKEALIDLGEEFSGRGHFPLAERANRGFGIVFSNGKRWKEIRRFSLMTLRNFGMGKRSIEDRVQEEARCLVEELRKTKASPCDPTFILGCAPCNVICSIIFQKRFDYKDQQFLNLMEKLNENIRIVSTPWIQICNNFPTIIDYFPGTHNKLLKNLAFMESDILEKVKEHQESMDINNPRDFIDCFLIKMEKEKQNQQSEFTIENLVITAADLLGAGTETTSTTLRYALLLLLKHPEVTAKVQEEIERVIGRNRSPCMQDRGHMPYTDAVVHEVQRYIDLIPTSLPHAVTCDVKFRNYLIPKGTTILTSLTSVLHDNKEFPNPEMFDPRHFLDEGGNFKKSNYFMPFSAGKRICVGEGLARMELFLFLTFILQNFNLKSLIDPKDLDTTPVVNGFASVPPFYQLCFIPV

[8] = target: Cytochrome P450 2C9 (Homo sapiens, UniProt P11712)
Sequence of Cytochrome P450 2C9 (P11712 whole entry): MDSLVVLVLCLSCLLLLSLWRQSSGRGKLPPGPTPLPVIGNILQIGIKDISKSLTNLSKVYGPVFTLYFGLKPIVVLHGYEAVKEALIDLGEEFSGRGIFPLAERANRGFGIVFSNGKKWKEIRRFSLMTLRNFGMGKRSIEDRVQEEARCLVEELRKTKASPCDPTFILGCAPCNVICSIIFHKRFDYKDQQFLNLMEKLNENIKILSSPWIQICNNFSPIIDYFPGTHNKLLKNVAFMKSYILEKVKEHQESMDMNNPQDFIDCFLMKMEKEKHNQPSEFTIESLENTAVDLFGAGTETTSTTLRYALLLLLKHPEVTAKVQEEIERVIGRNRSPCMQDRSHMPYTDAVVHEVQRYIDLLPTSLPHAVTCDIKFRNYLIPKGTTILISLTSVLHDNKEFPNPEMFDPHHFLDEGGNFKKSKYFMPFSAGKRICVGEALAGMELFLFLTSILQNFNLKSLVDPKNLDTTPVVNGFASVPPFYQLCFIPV

[9] = target: T3, Aminopeptidase N (Plasmodium falciparum FcB1/Columbia, UniProt O96935); experiment: P. falciparum M1AAP inhibitors, biochemical, fluorogenic H-Leu-NHMec substrate, 1536-well (AID 1445); parameters: species or system Plasmodium falciparum 3D7, 3D7
T3 sequence (O96935 whole entry): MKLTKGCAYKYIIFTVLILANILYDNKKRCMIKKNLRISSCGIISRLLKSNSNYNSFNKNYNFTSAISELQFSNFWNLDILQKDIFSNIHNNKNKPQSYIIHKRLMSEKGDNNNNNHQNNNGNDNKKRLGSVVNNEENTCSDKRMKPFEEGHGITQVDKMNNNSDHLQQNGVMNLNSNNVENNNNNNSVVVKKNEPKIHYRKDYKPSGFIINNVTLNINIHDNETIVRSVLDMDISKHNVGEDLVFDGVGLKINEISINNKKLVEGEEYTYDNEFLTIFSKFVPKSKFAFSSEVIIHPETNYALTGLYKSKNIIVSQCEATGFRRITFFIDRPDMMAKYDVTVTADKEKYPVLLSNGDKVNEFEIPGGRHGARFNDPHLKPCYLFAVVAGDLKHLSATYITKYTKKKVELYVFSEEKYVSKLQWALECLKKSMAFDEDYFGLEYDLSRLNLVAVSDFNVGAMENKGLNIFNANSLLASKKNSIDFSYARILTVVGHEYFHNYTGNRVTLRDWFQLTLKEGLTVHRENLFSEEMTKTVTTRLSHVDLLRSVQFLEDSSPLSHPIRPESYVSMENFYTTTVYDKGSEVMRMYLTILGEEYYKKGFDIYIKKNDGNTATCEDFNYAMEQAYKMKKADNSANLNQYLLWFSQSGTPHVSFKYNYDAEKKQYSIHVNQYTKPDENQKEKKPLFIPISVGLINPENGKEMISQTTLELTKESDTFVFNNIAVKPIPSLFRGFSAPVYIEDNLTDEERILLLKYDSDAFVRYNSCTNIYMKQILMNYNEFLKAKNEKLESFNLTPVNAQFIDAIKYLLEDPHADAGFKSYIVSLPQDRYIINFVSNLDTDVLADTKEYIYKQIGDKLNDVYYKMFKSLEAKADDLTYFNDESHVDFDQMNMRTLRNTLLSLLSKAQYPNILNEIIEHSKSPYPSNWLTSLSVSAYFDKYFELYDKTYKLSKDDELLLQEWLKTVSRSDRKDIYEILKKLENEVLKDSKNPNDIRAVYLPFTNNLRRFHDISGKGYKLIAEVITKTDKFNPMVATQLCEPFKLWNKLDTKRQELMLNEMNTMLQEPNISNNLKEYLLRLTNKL

[10] = target: T4, High affinity choline transporter 1 (Homo sapiens, UniProt Q9GZV3); experiment: CHT inhibitors, dose response, cell-based, 5-point CRC, membrane potential dye (AID 504840); format: functional
T4 sequence (Q9GZV3 whole entry): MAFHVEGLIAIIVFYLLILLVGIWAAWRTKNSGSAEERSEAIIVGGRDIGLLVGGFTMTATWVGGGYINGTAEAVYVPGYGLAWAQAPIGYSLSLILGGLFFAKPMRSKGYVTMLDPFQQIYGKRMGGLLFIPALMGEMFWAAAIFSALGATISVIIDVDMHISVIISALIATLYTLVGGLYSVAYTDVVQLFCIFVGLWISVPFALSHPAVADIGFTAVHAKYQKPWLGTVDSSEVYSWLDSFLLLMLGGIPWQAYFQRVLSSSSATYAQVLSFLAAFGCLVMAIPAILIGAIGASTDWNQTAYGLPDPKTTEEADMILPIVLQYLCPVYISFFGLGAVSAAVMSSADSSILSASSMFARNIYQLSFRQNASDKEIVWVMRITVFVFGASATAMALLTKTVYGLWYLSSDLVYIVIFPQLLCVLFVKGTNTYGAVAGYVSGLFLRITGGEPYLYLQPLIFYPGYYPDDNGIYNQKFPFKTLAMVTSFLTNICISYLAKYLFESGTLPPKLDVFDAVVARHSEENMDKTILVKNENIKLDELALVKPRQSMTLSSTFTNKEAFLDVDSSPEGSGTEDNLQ

[11] = cytotoxicity in HEK-293T cells, dose response, cytotoxicity control for BCR NF-kB inhibitor project, luminescence, B-cell screen hits (AID 489021); format: functional, cell-based;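 also: HEK-293T cells carrying an NF-kB luciferase reporter; cells exposed to compound for about 14 hours before viability readout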
[12] = cells; format: functional
[13] = inhibitors of intracellular T. cruzi replication, confirmation, NIH3T3 host cells, beta-gal luminescence (AID 2044); format: functional, cell-based;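 also: intracellular parasites grown in NIH/3T3 mouse fibroblasts as host cells; luminescent beta-galactosidase reporter signal from transgenic T. cruzi replicating inside host cells; inhibitors lower the luminescence signal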
[14] = THP-1 cell cytotoxicity, dose response, cytotoxicity control for non-replicating M. tuberculosis project (AID 489025); format: functional
[15] = target: T5, DNA repair protein RAD52 homolog (Homo sapiens, UniProt P43351); format: functional, biochemical
T5 sequence (P43351 whole entry): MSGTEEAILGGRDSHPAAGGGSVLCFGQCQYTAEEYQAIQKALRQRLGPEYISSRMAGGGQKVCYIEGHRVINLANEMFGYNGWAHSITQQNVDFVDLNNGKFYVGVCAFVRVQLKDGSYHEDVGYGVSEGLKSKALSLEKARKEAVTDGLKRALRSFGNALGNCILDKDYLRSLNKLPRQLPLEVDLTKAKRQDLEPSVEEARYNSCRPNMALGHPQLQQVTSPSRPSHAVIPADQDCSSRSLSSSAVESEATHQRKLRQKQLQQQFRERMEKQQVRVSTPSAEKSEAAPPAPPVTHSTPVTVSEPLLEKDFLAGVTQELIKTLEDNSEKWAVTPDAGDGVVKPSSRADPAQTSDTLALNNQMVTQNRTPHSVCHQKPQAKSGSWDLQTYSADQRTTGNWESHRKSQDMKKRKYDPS

[16] = cytotoxicity toward NIH3T3 fibroblasts, dose response, counter-screen, cell-based, ATP luminescence, mouse fibroblasts (AID 2010); format: functional;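 also: cells exposed to compound for about 90 hours before reading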
[17] = system: HEK293; experiment: NOD2 signaling inhibitors in MDP-stimulated cells, cell-based, uHTS, luminescence (AID 2001); format: functional; conditions: Homo sapiens
[18] = Shn3 3'UTR reporter inhibitors, dose response, cell-based, Clone20 osteoblasts, firefly luciferase, cherry-picked (AID 624132); format: functional;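 also: firefly luciferase luminescence from reporter carrying the Shn3 3'UTR in osteoblasts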
[19] = system: HEK293; experiment: NOD1 signaling inhibitors, primary screen, cell-based, luminescence, uHTS (AID 1578); format: functional; conditions: Homo sapiens
[20] = control 3'UTR Renilla luciferase suppression, dose response, counter-screen for Shn3 inhibitor project, cell-based, Clone20-Shn3RL, cherry-picked (AID 624133); format: functional
[21] = system: HEK293; experiment: cells; format: functional, cell-based; conditions: Homo sapiens
[22] = HepG2 cell cytotoxicity, dose response, cytotoxicity control for Shn3 inhibitor project, CellTiter-Glo, cherry-picked (AID 624134); format: functional, cell-based
[23] = system: HEK293; experiment: cells; format: functional, cell-based; conditions: Homo sapiens; remark: listed apart in the source
[24] = target: T1, Cytochrome P450 2D6; remark: listed apart in the source
[25] = target: G-protein coupled receptor 55 (Homo sapiens, UniProt Q9Y2T6); experiment: GPR55 agonists via beta-arrestin recruitment, primary screen, imaging, U2OS cells, beta-arrestin-GFP redistribution (AID 1961); format: functional
Sequence of G-protein coupled receptor 55 (Q9Y2T6 whole entry): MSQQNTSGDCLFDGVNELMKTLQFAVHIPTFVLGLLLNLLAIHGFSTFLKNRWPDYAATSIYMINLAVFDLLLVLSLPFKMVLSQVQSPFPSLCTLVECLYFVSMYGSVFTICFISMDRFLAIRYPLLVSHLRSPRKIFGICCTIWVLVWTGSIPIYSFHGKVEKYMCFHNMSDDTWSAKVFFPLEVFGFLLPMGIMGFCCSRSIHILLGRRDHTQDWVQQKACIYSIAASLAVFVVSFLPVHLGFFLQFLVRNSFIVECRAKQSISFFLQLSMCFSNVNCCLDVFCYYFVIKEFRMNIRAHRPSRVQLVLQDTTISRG

[26] = system: INS1; experiment: beta cell apoptosis inhibitors, cytokine rescue, dose response, luminescence, retest (AID 449756); format: functional, cell-based; conditions: Rattus norvegicus;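 also: cell death triggered by IL-1 beta plus TNF-alpha plus IFN-gamma mixture; protective hits raise ATP signal compared with cytokine alone wells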
[27] = target: T6, Fatty acid synthase (Homo sapiens, UniProt P49327); experiment: FAS thioesterase domain inhibitors, dose response, biochemical, kinetic fluorescence intensity (AID 624326); format: functional;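 also: rate of fluorescence rise from hydrolysis of a fluorogenic O-methyl fluorescein ester substrate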
T6 sequence (P49327 whole entry, the tested form may be a part): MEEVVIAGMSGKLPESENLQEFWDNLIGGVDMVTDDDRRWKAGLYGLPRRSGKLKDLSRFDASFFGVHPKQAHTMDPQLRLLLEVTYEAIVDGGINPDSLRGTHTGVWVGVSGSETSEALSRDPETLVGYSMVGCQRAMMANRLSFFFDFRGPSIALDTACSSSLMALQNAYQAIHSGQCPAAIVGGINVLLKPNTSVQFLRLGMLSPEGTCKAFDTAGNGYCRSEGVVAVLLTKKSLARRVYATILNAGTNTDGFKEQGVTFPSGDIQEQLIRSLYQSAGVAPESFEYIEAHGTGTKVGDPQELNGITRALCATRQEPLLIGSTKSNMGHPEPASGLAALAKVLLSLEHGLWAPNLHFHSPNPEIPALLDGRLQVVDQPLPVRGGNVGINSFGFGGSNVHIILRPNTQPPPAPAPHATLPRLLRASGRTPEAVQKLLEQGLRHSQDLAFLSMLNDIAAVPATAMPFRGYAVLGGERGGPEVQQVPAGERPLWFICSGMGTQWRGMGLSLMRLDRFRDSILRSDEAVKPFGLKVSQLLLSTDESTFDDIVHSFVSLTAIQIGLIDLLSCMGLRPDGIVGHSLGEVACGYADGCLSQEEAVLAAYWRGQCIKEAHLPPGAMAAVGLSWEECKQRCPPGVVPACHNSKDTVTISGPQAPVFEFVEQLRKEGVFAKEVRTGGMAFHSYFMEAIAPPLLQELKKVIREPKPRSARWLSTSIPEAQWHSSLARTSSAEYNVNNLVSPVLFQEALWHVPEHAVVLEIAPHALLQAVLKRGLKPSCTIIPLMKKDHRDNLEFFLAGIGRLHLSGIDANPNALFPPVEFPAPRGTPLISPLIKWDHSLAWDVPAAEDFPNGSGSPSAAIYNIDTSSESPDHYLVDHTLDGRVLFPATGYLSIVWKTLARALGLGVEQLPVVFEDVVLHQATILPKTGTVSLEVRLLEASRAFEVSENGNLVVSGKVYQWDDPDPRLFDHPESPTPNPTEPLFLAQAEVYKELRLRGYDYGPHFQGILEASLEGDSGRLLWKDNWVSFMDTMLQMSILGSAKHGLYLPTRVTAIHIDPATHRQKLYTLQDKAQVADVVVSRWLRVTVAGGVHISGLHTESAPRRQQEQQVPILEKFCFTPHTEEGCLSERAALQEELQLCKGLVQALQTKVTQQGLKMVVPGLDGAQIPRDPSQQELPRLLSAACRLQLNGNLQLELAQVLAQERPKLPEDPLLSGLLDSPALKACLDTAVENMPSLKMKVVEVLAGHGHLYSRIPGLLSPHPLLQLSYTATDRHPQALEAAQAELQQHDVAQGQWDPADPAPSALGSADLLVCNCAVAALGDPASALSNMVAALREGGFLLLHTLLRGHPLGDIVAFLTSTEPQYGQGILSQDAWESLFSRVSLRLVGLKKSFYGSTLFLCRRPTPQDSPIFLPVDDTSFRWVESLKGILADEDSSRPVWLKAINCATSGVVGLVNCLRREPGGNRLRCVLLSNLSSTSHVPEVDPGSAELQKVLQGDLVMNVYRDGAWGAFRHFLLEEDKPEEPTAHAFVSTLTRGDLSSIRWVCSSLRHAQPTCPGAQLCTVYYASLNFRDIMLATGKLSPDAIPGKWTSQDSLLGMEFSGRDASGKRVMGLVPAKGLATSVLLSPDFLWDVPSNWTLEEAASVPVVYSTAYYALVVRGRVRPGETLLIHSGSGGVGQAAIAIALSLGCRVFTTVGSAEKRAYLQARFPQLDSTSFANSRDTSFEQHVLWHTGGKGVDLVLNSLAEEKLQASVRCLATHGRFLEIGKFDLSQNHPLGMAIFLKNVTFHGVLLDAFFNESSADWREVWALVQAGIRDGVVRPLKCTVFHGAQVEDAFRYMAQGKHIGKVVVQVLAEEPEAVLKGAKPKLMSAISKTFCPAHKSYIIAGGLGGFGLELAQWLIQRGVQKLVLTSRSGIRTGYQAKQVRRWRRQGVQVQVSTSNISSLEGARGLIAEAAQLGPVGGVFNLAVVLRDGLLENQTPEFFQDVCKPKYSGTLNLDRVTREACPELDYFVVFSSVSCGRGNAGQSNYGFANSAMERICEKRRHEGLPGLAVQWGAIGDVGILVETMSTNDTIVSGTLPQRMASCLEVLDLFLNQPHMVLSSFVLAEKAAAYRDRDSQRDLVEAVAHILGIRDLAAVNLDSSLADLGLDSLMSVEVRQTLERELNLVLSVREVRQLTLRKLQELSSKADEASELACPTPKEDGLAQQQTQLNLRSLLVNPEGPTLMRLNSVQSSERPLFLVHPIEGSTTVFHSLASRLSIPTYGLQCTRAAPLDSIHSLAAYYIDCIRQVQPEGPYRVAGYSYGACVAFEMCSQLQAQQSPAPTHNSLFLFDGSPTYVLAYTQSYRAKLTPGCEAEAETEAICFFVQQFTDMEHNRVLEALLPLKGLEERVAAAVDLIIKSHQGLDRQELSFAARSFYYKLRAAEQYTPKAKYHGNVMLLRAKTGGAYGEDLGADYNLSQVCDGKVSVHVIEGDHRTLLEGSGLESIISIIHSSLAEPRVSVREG

[28] = target: T6, Fatty acid synthase; experiment: FAS thioesterase domain inhibitors, dose response, biochemical, endpoint fluorescence intensity, uHTS hits (AID 624327); format: functional;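 also: fluorescence from hydrolysis of an O-methyl fluorescein acyl ester substrate by the enzyme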
[29] = cytotoxicity in HEK-293T cells, dose response, cytotoxicity control for TCR NF-kB inhibitor project, luminescence, T-cell screen hits (AID 489026); format: functional, cell-based;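 also: cells exposed to compound about 14 hours before the viability readout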

T1 sequence (P10635 whole entry): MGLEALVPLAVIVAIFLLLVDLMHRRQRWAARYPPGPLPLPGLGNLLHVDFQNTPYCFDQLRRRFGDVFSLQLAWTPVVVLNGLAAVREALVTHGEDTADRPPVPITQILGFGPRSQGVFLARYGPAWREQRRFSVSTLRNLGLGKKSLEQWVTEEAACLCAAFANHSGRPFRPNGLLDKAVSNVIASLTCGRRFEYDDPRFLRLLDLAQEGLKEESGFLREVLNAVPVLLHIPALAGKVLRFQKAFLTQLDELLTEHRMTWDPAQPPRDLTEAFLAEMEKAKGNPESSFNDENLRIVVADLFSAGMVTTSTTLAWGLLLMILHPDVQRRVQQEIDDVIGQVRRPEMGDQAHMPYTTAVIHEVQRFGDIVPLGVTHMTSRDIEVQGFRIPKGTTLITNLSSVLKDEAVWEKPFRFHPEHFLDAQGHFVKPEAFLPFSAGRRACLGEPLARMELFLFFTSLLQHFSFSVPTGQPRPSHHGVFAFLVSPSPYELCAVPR

COc1cc(C(=O)NC(=S)Nc2ccc3oc(=O)ccc3c2)cc(OC)c1OC
AC50 [1]: inconclusive

CC12CCC(C/C1=N\NC1=NC(=O)/C(=C\c3cccc(Br)c3)S1)C2(C)C (stereo unspecified)
EC50 [2]: 2.89 µM (active)
AC50 [3]: 1.95 µM (active)
EC50 [4]: > 150 µM (not active)
EC50 [5]: 0.343 µM (active)
CC50 [6]: > 40 µM (active)

O=C(O)C1CCN(c2c([N+](=O)[O-])cc(C(F)(F)F)cc2[N+](=O)[O-])CC1
AC50 [1]: inconclusive
AC50 [7]: 14.1 µM (inconclusive)
AC50 [8]: 35.5 µM (inconclusive)

O=C(N/N=C1\CCC\C1=C(/O)C(F)(F)F)c1cccc(O)c1
CC50 [6]: 32.2 µM (active)

O=S(=O)(Nc1nc2cc3c(cc2nc1Cl)OCCO3)c1ccccc1
IC50 [9]: 66.8 µM (active)

CCOC(=O)c1cnc2c(C(F)(F)F)cccc2c1N1CCOCC1
IC50 [10]: 13.5 µM (active)

CN1C(=O)CC(c2ccco2)Sc2ccccc21 (stereo unspecified)
IC50 [11]: > 80 µM (inactive)

COCCn1c(C)cc2c(c1=O)C(c1ccccc1F)C(C#N)=C(N)O2 (stereo unspecified)
AC50 [1]: inconclusive
AC50 [8]: 17.8 µM (inconclusive)

N=C(N)Nc1nc(-c2ccccc2)c2ccccc2n1
IC50 [12]: 34.5 µM (active)
EC50 [13]: 0.142 µM (active)
CC50 [14]: 21.2 µM (active)
AC50 [15]: 16.6 µM (active)
EC50 [16]: > 60 µM (not active)

Cn1c(SCC(=O)N2CCCc3ccccc32)nc2ccccc2c1=O
IC50 [17]: 6.57 µM (active)
AC50 [18]: 3.46 µM (active)
EC50 [19]: 4.77 µM (active)
AC50 [20]: 4.04 µM (active)
IC50 [21]: 5.85 µM (active)
AC50 [22]: 43.6 µM (active)
IC50 [23]: 13.5 µM (active)

O=C(NNS(=O)(=O)c1ccc(Cl)cc1)c1cc(-c2ccccc2)nc2ccccc12
IC50 [9]: 36.5 µM (active)

CCN1C(=O)[C@H]2[C@@H]3[C@H](O)C=CC(=O)[C@H]3CC[C@H]2C1=O
AC50 [1]: inconclusive

CCCn1nnnc1NC(=O)COc1ccc(Cl)cc1C
AC50 [24]: 25.1 µM (inconclusive)
CC50 [6]: 34.5 µM (active)

COc1ccc(C(C(=O)NC2CCCCC2)N(C(=O)c2sc(C)nc2C)c2ccc(C(C)=O)cc2)cc1 (stereo unspecified)
AC50 [1]: inconclusive

Cc1ccccc1N(CC(=O)NC1CCCC1)C(=O)C[S+]([O-])CC(=O)Nc1ccc2c(c1)OCO2 (stereo unspecified)
IC50 [9]: 63.9 µM (active)

COc1ccccc1N1CCN(C(c2cccs2)c2nnnn2C2CCCC2)CC1 (stereo unspecified)
EC50 [25]: 6.33 µM (active)

c1ccc(CCNc2ncnc3ccccc23)cc1
AC50 [26]: 1.05 µM (active)
IC50 [11]: > 80 µM (inactive)

CC1CCN(C(=O)CCCOc2cc(=O)n(C)c3ccccc23)CC1
IC50 [11]: > 80 µM (inactive)

O=C(NCc1ccc2c(c1)OCO2)c1cc([N+](=O)[O-])ccc1N1CCOCC1
IC50 [27]: 8.35 µM (active)
IC50 [28]: 11.5 µM (active)
IC50 [29]: > 80 µM (inactive)

Nc1ccc(N=Nc2ccccc2O)c(N)c1
CC50 [6]: > 40 µM (active)

Source: ChEMBL document CHEMBL1201862, “PubChem BioAssay data set” (2004)
